test system: Mus musculus; test: Compound was evaluated for (T-C) survival time of the treated mice (Mus musculus) against Plasmodium berghei at 40 mg/Kg; type: functional

**Q.** For CC(C)(C)OOCN1CCN(c2ccccc2)CC1, which T-C is on record?
**A.** 0.9 days

**Q.** With CC1CCN(COOC(C)(C)C)CC1 as the compound, how does the T-C read?
**A.** 0.3 days

**Q.** How did the T-C turn out when CC(C)(C)OOCN1CCC(c2ccccc2)CC1 was run?
**A.** 0.3 days

**Q.** With CN(COOC(C)(C)C)C1CCCCC1 as the compound, how does the T-C read?
**A.** 0.5 days

**Q.** CCN(COOC(C)(C)C)c1ccccc1 was tested. Which T-C did it give?
**A.** 0.5 days

**Q.** Which T-C does the source give for CC(C)(C)OO [TERT-BUTYL HYDROPEROXIDE] here?
**A.** 0.1 days

test system: Mus musculus; test: Compound was evaluated for (T-C) survival time of the treated mice (Mus musculus) against Plasmodium berghei at 640 mg/kg; type: functional

**Q.** With CC(C)(C)OOCN1CCN(c2ccccc2)CC1 as the compound, how does the T-C read?
**A.** 0.7 days

**Q.** Which T-C does the source give for CC1CCN(COOC(C)(C)C)CC1 here?
**A.** 0.7 days

**Q.** With CC(C)(C)OOCN1CCC(c2ccccc2)CC1 as the compound, how does the T-C read?
**A.** 0.8 days

**Q.** Which T-C does the source give for CN(COOC(C)(C)C)C1CCCCC1 here?
**A.** 0.7 days

**Q.** CCN(COOC(C)(C)C)c1ccccc1 was tested. Which T-C did it give?
**A.** 1.3 days

**Q.** CC(C)(C)OO [TERT-BUTYL HYDROPEROXIDE] was tested. Which T-C did it give?
**A.** 0.7 days

test system: Mus musculus; test: Compound was evaluated for (T-C) survival time of the treated mice (Mus musculus) against Plasmodium berghei at 160 mg/kg; type: functional

**Q.** CC(C)(C)OOCN1CCN(c2ccccc2)CC1 was tested. Which T-C did it give?
**A.** 0.7 days

**Q.** For CC1CCN(COOC(C)(C)C)CC1, which T-C is on record?
**A.** 0.1 days

**Q.** How did the T-C turn out when CC(C)(C)OOCN1CCC(c2ccccc2)CC1 was run?
**A.** 0.5 days

**Q.** With CN(COOC(C)(C)C)C1CCCCC1 as the compound, how does the T-C read?
**A.** 1.3 days

**Q.** For CCN(COOC(C)(C)C)c1ccccc1, which T-C is on record?
**A.** 0.3 days

**Q.** Which T-C does the source give for CC(C)(C)OO [TERT-BUTYL HYDROPEROXIDE] here?
**A.** 0.3 days

test system: Plasmodium falciparum; test: In vitro antimalarial activity against Plasmodium falciparum D6; type: functional, organism-based

**Q.** With CC(C)(C)OOCN1CCN(c2ccccc2)CC1 as the compound, how does the IC50 read?
**A.** 25.7 µM

**Q.** For CC1CCN(COOC(C)(C)C)CC1, which IC50 is on record?
**A.** 19.7 µM

**Q.** Which IC50 does the source give for CC(C)(C)OOCN1CCC(c2ccccc2)CC1 here?
**A.** 27.3 µM

**Q.** For CN(COOC(C)(C)C)C1CCCCC1, which IC50 is on record?
**A.** 25.1 µM

**Q.** Which IC50 does the source give for CCN(COOC(C)(C)C)c1ccccc1 here?
**A.** 54 µM

**Q.** With CC(C)(C)OO [TERT-BUTYL HYDROPEROXIDE] as the compound, how does the IC50 read?
**A.** 203 µM

test system: Plasmodium falciparum; test: In vitro antimalarial activity against Plasmodium falciparum W-2; type: functional, organism-based

**Q.** For CC(C)(C)OOCN1CCN(c2ccccc2)CC1, which IC50 is on record?
**A.** 39.8 µM

**Q.** For CC1CCN(COOC(C)(C)C)CC1, which IC50 is on record?
**A.** 25.2 µM

**Q.** For CC(C)(C)OOCN1CCC(c2ccccc2)CC1, which IC50 is on record?
**A.** 26.9 µM

**Q.** Which IC50 does the source give for CN(COOC(C)(C)C)C1CCCCC1 here?
**A.** 26.6 µM

**Q.** How did the IC50 turn out when CCN(COOC(C)(C)C)c1ccccc1 was run?
**A.** 39.4 µM

**Q.** How did the IC50 turn out when CC(C)(C)OO [TERT-BUTYL HYDROPEROXIDE] was run?
**A.** 240 µM
